In ChEMBL document CHEMBL4507276 (2021):

Legend:
[1] = biological target: Type-2 angiotensin II receptor (Homo sapiens) (UniProt P50052); assay: AT2/H Cerep selectivity data (BI); settings: Compound concentration 20.0 uM
[2] = biological target: Cannabinoid receptor 1 (Homo sapiens) (UniProt P21554); assay: CB1/CENTR/H Cerep selectivity data (BI); settings: Compound concentration 20.0 uM
[3] = biological target: T1, Muscarinic acetylcholine receptor M1 (Homo sapiens) (UniProt P11229); assay: M1/H Cerep selectivity data (BI); settings: Compound concentration 20.0 uM
T1 sequence (whole entry): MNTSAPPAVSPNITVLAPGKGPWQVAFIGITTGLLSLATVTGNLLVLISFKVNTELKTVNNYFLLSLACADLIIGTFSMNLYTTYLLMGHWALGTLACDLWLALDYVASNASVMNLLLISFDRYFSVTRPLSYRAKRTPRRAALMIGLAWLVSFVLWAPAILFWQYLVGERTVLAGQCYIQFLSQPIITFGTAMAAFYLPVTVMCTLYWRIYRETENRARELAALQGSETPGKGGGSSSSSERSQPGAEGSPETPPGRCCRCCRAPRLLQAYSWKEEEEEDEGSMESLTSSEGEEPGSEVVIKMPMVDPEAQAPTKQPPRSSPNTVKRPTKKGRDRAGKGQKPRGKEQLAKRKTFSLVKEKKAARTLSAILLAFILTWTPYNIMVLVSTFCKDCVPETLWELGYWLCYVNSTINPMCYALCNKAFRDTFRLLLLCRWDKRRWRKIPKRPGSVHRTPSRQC

[4] = biological target: Sodium- and chloride-dependent GABA transporter 1 (Rattus norvegicus) (UniProt P23978); assay: GABATRANS/RA Eurofins-Panlabs selectivity data (BI); settings: Compound concentration 10.0 uM
[5] = biological target: Calcium/calmodulin-dependent protein kinase kinase 2 (Homo sapiens) (UniProt Q96RR4); assay: CAMKK2 Invitrogen selectivity data (BI); settings: Compound concentration 3.0 uM
Sequence of Calcium/calmodulin-dependent protein kinase kinase 2 (Homo sapiens) (Q96RR4 2-588 limits assumed): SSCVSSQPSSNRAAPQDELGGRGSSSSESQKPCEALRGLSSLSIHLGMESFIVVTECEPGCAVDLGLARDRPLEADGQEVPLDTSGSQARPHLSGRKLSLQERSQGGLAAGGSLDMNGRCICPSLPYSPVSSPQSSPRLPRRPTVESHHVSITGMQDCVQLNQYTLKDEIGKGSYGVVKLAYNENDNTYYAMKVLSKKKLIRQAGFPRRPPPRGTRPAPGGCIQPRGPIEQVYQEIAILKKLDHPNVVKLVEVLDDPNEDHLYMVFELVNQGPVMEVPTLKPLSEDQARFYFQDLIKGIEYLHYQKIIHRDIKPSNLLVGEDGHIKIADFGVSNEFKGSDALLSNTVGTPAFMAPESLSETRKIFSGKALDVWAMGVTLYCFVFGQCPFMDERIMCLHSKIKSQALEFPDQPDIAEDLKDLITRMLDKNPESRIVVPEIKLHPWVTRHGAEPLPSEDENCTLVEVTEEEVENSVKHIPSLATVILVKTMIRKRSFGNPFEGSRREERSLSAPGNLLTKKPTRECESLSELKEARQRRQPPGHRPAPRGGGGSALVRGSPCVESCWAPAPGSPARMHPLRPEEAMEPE

[6] = biological target: Dual specificity protein kinase CLK2 (Homo sapiens) (UniProt P49760); assay: CLK2 Invitrogen selectivity data (BI); settings: Compound concentration 3.0 uM
Sequence of Dual specificity protein kinase CLK2 (Homo sapiens) (P49760 whole entry, looked up): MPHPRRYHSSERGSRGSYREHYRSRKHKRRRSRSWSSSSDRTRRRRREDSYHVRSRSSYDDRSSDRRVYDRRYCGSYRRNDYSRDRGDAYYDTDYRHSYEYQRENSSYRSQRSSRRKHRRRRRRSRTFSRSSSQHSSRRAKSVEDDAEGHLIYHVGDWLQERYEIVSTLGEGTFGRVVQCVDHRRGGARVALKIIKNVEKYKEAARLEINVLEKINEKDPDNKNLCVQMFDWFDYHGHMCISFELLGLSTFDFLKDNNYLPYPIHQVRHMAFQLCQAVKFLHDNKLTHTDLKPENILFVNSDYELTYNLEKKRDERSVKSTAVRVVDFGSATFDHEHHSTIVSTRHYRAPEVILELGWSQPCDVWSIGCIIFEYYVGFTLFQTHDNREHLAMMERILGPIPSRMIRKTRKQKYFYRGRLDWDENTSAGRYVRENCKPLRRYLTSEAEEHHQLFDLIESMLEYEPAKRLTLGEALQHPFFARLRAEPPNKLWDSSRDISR

[7] = biological target: Fibroblast growth factor receptor 4 (Homo sapiens) (UniProt P22455); assay: FGFR4 Invitrogen selectivity data (BI); settings: Compound concentration 3.0 uM
Sequence of Fibroblast growth factor receptor 4 (Homo sapiens) (P22455 22-802 limits assumed): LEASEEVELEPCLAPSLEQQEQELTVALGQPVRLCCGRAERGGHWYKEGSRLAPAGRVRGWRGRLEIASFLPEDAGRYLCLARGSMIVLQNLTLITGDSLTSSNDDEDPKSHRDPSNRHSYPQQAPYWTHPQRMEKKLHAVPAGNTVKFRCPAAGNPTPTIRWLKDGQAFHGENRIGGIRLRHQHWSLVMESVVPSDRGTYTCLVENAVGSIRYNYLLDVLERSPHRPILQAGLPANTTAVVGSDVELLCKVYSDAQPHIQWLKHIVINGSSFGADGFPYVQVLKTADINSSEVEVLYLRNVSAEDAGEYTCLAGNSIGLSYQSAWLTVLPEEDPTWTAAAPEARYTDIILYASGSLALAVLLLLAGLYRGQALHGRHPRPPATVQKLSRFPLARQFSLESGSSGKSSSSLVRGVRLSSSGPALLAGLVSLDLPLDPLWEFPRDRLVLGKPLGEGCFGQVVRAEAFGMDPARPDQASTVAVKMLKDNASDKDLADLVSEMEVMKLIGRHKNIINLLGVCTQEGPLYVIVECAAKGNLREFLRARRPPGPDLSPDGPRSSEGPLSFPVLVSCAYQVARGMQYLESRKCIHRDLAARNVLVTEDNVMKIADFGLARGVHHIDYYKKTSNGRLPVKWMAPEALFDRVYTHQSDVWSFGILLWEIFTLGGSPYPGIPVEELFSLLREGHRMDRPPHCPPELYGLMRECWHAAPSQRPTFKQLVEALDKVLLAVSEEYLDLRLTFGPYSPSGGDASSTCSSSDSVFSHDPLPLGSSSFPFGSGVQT

[8] = biological target: T2, Serine/threonine-protein kinase haspin (Homo sapiens) (UniProt Q8TF76); assay: GSG2 Invitrogen selectivity data (BI); settings: Compound concentration 3.0 uM
T2 sequence (whole entry): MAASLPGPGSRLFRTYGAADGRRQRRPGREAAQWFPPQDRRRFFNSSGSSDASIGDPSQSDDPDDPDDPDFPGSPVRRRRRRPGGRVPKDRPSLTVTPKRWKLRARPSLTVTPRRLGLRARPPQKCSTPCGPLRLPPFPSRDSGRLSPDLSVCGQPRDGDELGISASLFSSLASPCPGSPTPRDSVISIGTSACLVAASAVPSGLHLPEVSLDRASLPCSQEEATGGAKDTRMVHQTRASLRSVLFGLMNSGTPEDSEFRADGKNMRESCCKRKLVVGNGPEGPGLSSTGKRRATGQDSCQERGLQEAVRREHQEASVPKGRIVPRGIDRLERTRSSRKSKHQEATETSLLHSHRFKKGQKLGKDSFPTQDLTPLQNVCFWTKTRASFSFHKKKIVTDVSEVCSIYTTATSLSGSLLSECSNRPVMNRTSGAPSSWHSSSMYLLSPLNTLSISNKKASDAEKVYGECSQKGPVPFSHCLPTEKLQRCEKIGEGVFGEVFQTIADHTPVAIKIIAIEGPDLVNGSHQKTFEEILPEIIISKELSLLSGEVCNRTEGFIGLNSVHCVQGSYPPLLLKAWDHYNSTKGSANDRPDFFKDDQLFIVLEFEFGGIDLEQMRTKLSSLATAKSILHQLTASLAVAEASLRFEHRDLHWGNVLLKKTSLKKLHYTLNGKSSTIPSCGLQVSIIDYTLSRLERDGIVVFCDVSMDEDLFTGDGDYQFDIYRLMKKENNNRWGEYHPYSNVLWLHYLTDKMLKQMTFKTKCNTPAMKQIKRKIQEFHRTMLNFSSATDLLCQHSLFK

[9] = biological target: T3, Serine/threonine-protein kinase NLK (Homo sapiens) (UniProt Q9UBE8); assay: NLK Invitrogen selectivity data (BI); settings: Compound concentration 3.0 uM
T3 sequence (whole entry): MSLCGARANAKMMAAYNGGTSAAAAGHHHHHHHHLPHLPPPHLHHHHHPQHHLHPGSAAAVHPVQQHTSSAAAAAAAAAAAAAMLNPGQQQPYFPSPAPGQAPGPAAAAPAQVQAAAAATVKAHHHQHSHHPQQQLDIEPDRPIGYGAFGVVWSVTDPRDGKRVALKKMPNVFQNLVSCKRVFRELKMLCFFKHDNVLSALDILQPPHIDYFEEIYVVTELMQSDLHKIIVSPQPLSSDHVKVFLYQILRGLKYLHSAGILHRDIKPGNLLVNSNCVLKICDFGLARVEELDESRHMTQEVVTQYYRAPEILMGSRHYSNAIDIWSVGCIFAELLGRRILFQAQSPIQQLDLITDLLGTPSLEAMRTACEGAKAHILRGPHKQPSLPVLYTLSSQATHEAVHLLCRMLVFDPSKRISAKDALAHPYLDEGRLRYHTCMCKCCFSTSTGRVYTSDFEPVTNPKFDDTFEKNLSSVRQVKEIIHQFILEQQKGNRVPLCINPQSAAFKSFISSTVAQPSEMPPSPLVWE

[10] = biological target: Protein kinase C theta type (Homo sapiens) (UniProt Q04759); assay: PRKCQ Invitrogen selectivity data (BI); settings: Compound concentration 3.0 uM
Sequence of Protein kinase C theta type (Homo sapiens) (Q04759 whole entry, looked up): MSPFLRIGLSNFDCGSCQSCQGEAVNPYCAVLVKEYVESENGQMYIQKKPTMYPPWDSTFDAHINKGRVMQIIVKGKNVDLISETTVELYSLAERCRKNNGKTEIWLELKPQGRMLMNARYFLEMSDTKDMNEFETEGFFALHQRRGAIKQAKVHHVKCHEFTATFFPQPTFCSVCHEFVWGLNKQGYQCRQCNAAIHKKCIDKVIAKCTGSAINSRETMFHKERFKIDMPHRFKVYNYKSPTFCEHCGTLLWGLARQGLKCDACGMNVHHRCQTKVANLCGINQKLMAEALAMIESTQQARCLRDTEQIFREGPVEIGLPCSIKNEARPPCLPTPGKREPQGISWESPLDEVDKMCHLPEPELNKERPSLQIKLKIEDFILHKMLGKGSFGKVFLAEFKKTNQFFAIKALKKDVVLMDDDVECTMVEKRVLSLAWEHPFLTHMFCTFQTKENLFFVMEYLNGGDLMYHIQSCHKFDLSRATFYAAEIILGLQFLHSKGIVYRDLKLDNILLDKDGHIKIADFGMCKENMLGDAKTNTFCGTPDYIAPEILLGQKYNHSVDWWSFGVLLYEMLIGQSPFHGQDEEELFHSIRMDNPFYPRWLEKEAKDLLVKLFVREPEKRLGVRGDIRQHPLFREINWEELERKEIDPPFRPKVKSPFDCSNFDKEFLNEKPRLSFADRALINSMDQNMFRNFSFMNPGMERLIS

Measured: residual activity

Sequence of Type-2 angiotensin II receptor (Homo sapiens) (P50052 whole entry): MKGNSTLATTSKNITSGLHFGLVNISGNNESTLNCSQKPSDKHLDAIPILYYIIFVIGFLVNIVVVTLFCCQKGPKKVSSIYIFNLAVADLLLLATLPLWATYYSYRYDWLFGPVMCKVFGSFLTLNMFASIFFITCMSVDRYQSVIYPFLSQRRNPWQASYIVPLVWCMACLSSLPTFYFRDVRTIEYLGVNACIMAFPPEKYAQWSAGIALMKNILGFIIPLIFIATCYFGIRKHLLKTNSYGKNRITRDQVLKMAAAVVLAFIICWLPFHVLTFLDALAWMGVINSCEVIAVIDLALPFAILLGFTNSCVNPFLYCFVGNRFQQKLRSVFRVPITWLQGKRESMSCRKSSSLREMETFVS
Sequence of Cannabinoid receptor 1 (Homo sapiens) (P21554 whole entry): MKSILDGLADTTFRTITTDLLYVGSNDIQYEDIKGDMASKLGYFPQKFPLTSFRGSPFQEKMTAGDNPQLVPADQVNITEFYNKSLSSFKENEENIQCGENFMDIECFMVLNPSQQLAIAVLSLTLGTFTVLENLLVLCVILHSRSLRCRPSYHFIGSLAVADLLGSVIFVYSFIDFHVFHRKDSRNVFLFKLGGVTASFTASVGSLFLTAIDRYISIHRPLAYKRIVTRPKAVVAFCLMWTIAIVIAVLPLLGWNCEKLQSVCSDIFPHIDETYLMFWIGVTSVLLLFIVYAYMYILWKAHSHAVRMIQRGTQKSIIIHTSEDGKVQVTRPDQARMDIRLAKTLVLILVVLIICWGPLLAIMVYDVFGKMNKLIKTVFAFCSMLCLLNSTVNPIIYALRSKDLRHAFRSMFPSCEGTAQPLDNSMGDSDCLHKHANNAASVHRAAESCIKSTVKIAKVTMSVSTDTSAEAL

CN(C)C(=O)Cn1cc(-c2nc([C@@](C)(c3ccc(-c4cnc(N)nc4)cc3)C3CC3)no2)cn1 [BI 665915]
inactive: [1] 98% | [2] 88% | [3] 99% | [4] 82% | [5] 98% | [6] 95.5% | [7] 96.5% | [8] 100% | [9] 93% | [10] 93.5%
